Source: US20220280661A1, “GLUCOCORTICOID RECEPTOR RADIOLIGANDS AND METHODS FOR THEIR PREPARATION AND USE” (The Regents of the University of California, priority 2019, published 2022)

Target: T1, GR (Mus musculus, UniProt P06537)
T1 construct: from tissue; host or cells: tissues of C57BL6/J mice (intact or adrenalectomized), in vivo
T1 sequence (P06537 1-792): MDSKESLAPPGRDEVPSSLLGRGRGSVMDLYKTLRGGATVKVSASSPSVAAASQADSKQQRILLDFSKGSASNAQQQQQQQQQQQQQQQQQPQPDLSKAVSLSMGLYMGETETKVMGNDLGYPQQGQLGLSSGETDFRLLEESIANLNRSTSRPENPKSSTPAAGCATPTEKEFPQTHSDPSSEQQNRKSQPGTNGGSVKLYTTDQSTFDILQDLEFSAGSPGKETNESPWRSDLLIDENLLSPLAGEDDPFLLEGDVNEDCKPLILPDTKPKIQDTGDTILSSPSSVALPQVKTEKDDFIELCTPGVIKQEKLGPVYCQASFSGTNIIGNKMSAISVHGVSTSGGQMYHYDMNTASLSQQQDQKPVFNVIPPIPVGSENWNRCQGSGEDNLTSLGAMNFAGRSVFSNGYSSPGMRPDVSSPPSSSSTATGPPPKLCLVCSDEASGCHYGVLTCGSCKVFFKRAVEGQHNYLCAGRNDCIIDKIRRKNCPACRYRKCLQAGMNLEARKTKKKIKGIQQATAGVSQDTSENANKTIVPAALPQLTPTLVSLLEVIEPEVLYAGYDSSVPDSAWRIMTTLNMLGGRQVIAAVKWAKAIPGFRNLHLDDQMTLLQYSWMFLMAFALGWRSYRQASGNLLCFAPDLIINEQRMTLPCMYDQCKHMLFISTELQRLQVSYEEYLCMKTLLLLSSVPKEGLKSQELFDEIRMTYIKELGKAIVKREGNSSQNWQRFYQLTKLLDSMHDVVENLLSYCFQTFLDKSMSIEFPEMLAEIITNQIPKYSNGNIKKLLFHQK
Assay: Radiotracer biodistribution in intact or adrenalectomized mice
Type: in vivo
Conditions: 20 min post injection
Experimental: All animal experiments were conducted under the approval from Institutional Animal Care and Use Committee (IACUC) at UCSF. Male nu nu or C57BL6/J mice (4-6 weeks) purchased from Charles River. All the mice were well-housed in the USCF with free access to food and water. […] The mice were treated once daily for three days. At day 3, the mice received the radiotracer after the final gavage. Adrenalectomized mice were purchased from Charles River, and provided drinking water supplemented with NaCl (aq) per instructions.
For a broader survey of radiotracer biodistribution post mortem, mice were euthanized after radiotracer injection with CO2(g) asphyxiation and dissected at dedicated time points post injection. The blood and tissues were removed, washed, dried and weighed. The activity of each tissue was measured with a gamma counter. All data was decay corrected. PRISM software was used to express a percentage (% ID/g) of the injected dose per gram of tissue. […] Table 2 provides a tabular representation of the biodistribution data collected 30, 60, 90 minutes after injection of [18F]-YJH08 in C57B16/J mice. The data are represented as mean standard deviation of the % ID/g.
To understand if corticosteroid depletion elevated radiotracer uptake in tissues, the biodistribution of [18F]-YJH08 was compared in intact and adrenalectomized (adx) mice. The radiotracer uptake was uniformly higher in the tissues of adx mice compared to intact mice (FIG. 4C and Table 4). Overall, the extent of GR specific binding in tissues observed with [18F]-YJH08 is remarkable considering the previously reported biodistribution data for radiotracers targeting GR, including non-steroidal agonists. See, Wuest, et al. Bioorganic & medicinal chemistry letters 2007, 17 (14), 4035-9.
The P value indicates the result of an unpaired, two-tailed Student's t test between the two arms (n=4/group).
Animal Studies. All animal experiments were performed under the approval of the Institutional Animal Care and Use Committee (IACUC) at UCSF. C57BL6/J mice (4-6 weeks) were purchased from Charles River. All the mice were housed in a dedicated vivarium with free access to food and water. […] Adrenalectomized mice were purchased from Charles River and provided drinking water supplemented with NaCl (aq) per instructions until the time of the tracer biodistribution study.
Biodistribution Studies. Mice were euthanized after radiotracer (7.4-18.5 MBq in 100-150 μL) injection with CO2 (g) asphyxiation and dissected at dedicated time points post injection. The blood and tissues were collected, washed, dried, and weighed. The activity of each tissue was measured with a gamma counter. All data was decay corrected. PRISM software was used to express a percentage (% ID/g) of the injected dose per gram of tissue.
The data were collected in intact male C57B16/J mice at 20 min post injection.
Significant reductions in (±)-^11C-YJH08 tissue uptake were observed by treating mice with Dex-CD at 10 mg/kg via intraperitoneal injection 1 hour before the radiotracer injection (FIG. 7A). […] Specific binding in vivo was further studied by investigating relative tissue uptake in intact versus adrenalectomized mice (adrenalectomy depletes serum corticosteroids and elevates GR expression in tissues). […] Table 8 summarizes the biodistribution data collected 20 minutes after injection of (±)-^11C-YJH08 in intact or adrenalectomized (ADREX) mice. The P value indicates the result of an unpaired, two-tailed Student's t test between the two arms (n=4/group).

[1] = intact C57B16/J mice, listed as (±)-^18F-YJH08

Row | Structure (SMILES) | radiotracer uptake, Blood (adrenalectomized mice) [% ID/g] | radiotracer uptake, Bone (adrenalectomized mice) [% ID/g] | radiotracer uptake, Brain (adrenalectomized mice) [% ID/g] | radiotracer uptake, Heart (adrenalectomized mice) [% ID/g] | radiotracer uptake, Kidney (adrenalectomized mice) [% ID/g] | radiotracer uptake, Liver (adrenalectomized mice) [% ID/g] | radiotracer uptake, Muscle (adrenalectomized mice) [% ID/g] | radiotracer uptake, Spleen (adrenalectomized mice) [% ID/g] | radiotracer uptake, Supraspinal BAT (adrenalectomized mice) [% ID/g] | radiotracer uptake, Adrenal Gland (intact C57B16/J mice) [% ID/g] | radiotracer uptake, Blood (intact C57B16/J mice) [% ID/g] | radiotracer uptake, Bone (intact C57B16/J mice) [% ID/g] | radiotracer uptake, Brain (intact C57B16/J mice) [% ID/g] | radiotracer uptake, Heart (intact C57B16/J mice) [% ID/g] | radiotracer uptake, Kidney (intact C57B16/J mice) [% ID/g] | radiotracer uptake, Liver (intact C57B16/J mice) [% ID/g] | radiotracer uptake, Muscle (intact C57B16/J mice) [% ID/g] | radiotracer uptake, Spleen (intact C57B16/J mice) [% ID/g] | radiotracer uptake, Supraspinal BAT (brown fat depot) (intact C57B16/J mice) [% ID/g] | also measured
1 | CC1=CC(C)(C)Nc2ccc3c(c21)C(Cc1ccc(F)cc1)Oc1cccc(O[11CH3])c1-3 (racemic) [(±)-^11C-YJH08] | 2.79 ± 0.54 | 2.03 ± 0.4 | 2.28 ± 0.46 | 5.63 ± 0.94 | 6.88 ± 1.52 | 15.21 ± 3.39 | 2.32 ± 0.5 | 2.88 ± 0.68 | 12.01 ± 3.54 | 13.88 ± 7.15 | 2.25 ± 0.21 | 1.19 ± 0.13 | 1.81 ± 0.17 | 4.47 ± 0.43 | 5.82 ± 0.28 | 12.19 ± 1.22 | 1.53 ± 0.13 | 2.22 ± 0.33 | 9.8 ± 2.83 | –
2 | COc1cccc2c1-c1ccc3c(c1C(Cc1ccc([18F])cc1)O2)C(C)=CC(C)(C)N3 (racemic) [[18F]-YJH08, [^18F]-5-(4-fluorobenzyl)-10-methoxy-2,2,4-trimethyl-2,5-dihydro-1H-chromeno[3,4-f]quinoline] | 2.67 ± 0.1 | 1.45 ± 0.2 | 2.42 ± 0.1 | 4.75 ± 1.0 | 6.91 ± 0.3 | 13.28 ± 1.43 | 2.03 ± 0.2 | 3.25 ± 0.05 | 15.56 ± 3.8 | 10.82 ± 5.9 | 2.01 ± 0.4 | 1.39 ± 02 | 1.96 ± 0.09 | 3.92 ± 0.5 | 5.79 ± 1.0 | 10.68 ± 1.1 | 1.53 ± 0.1 | 2.67 ± −0.5 | 9.01 ± 2.0 | radiotracer uptake, Large intestine (adrenalectomized mice): 1.34 ± 0.7 % ID/g; radiotracer uptake, Lung (adrenalectomized mice): 4.35 ± 1.1 % ID/g; radiotracer uptake, Pancreas (adrenalectomized mice): 5.25 ± 0.4 % ID/g; radiotracer uptake, Small intestine (adrenalectomized mice): 27.83 ± 2.89 % ID/g; radiotracer uptake, Stomach (adrenalectomized mice): 3.23 ± 3.57 % ID/g; radiotracer uptake, Lung (intact C57B16/J mice): 3.89 ± 0.7 % ID/g; radiotracer uptake, Pancreas (intact C57B16/J mice): 4.40 ± 0.2 % ID/g; radiotracer uptake, Small intestine (intact C57B16/J mice): 21.22 ± 4.1 % ID/g; radiotracer uptake, Stomach (intact C57B16/J mice): 3.38 ± 2.8 % ID/g; radiotracer uptake, Adrenal Gland [1]: 12.19 ± 6.46 % ID/g; radiotracer uptake, Blood [1]: 2.22 ± 0.14 % ID/g; radiotracer uptake, Bone [1]: 1.3 ± 0.23 % ID/g; radiotracer uptake, Brain [1]: 1.93 ± 0.07 % ID/g; radiotracer uptake, Heart [1]: 4.15 ± 0.31 % ID/g; radiotracer uptake, Kidney [1]: 5.79 ± 1.07 % ID/g; radiotracer uptake, Liver [1]: 11.08 ± 0.92 % ID/g; radiotracer uptake, Muscle [1]: 1.53 ± 0.12 % ID/g; radiotracer uptake, Spleen [1]: 2.46 ± 0.53 % ID/g; radiotracer uptake, Supraspinal BAT (brown fat depot) [1]: 9.01 ± 2.07 % ID/g
